Values quoted from earlier work, collected in patent publication US20100151459A1, “MARKER FOR DETECTING THE PROPOSED EFFICACY OF TREATMENT” (priority 2007, published 2010).

Tests used:
[1] = tested on: acutely exacerbated schizophrenic inpatients; conditions: 18 mg/day, 3-week treatment
[2] = tested on: reserpinized (hypodopaminergic) rats

SMILES	percentage improvement in other subgrouped symptoms (negative, anxiety-depression, excitement and cognitive symptoms) ([1]; between the two genotype groups)	percentage improvement in total BPRS and positive symptoms ([1]; one or two A1 alleles (n=14) vs no A1 allele (n=11))	locomotor activity [2]
CNc1cc(OC)c(C(=O)NC2CCN(Cc3ccccc3)C2C)cc1Cl (stereo not drawn) [nemonapride]	similar	significantly higher percentage improvement	
O=C1CCc2ccc(OCCCCN3CCN(c4cccc(Cl)c4Cl)CC3)cc2N1 [aripiprazole]			does not increase locomotor activity
